# Source: patent publication US11406619B2, “Injectable formulations” (priority 2020, dated 2022)
# Marks after values point to notes of the source that are not given here.
# Assay: HPLC assay (concentration / percentage recovery) of formulations at preparation and on storage
# Conditions: for Concentration (assay): 40 mM B-R buffer
substance,measurement,setting,value
DMT fumarate [SPL026],content after filtration,"20 mg/mL in B-R buffer, pH 4 to 10, filtered after overnight storage",approximately the same content
same,Concentration (assay),"nominal pH 4.0, Day 7 (7 days 40° C.)",2.57 mg/mL
same,Concentration (assay),"nominal pH 4.0, Day 17 (10 days 40° C. then 7 days 50° C.)",2.52 mg/mL
same,Concentration (assay),"nominal pH 4.0, Initial",2.47 mg/mL
same,Concentration (assay),"nominal pH 5.0, Day 7 (7 days 40° C.)",2.48 mg/mL
same,Concentration (assay),"nominal pH 5.0, Day 17 (10 days 40° C. then 7 days 50° C.)",2.52 mg/mL
same,Concentration (assay),"nominal pH 5.0, Initial",2.50 mg/mL
same,Concentration (assay),"nominal pH 6.0, Day 7 (7 days 40° C.)",2.56 mg/mL
same,Concentration (assay),"nominal pH 6.0, Day 17 (10 days 40° C. then 7 days 50° C.)",2.48 mg/mL
same,Concentration (assay),"nominal pH 6.0, Initial",2.51 mg/mL
same,Concentration (assay),"nominal pH 6.5, Day 7 (7 days 40° C.)",2.59 mg/mL
same,Concentration (assay),"nominal pH 6.5, Day 17 (10 days 40° C. then 7 days 50° C.)",2.51 mg/mL
same,Concentration (assay),"nominal pH 6.5, Initial",2.49 mg/mL
same,Concentration (assay),"nominal pH 7.0, Day 7 (7 days 40° C.)",2.54 mg/mL
same,Concentration (assay),"nominal pH 7.0, Day 17 (10 days 40° C. then 7 days 50° C.)",2.45 mg/mL
same,Concentration (assay),"nominal pH 7.0, Initial",2.54 mg/mL
same,Concentration (assay),"nominal pH 7.0, on completion of light stressing (200 watt hours UVA, 0.6 million lux hours)",2.26^a mg · mL^−1
same,Concentration (assay),"nominal pH 7.0 UV Light aliquot, Initial",2.54 mg/mL
same,Concentration (assay),"nominal pH 7.0 sparged N2, Day 7 (7 days 40° C.)",2.54 mg/mL
same,Concentration (assay),"nominal pH 7.0 sparged N2, Day 17 (10 days 40° C. then 7 days 50° C.)",2.51 mg/mL
same,Concentration (assay),"nominal pH 7.0 sparged N2, Initial",2.54 mg/mL
same,Concentration (assay),"nominal pH 7.5, Day 7 (7 days 40° C.)",2.55 mg/mL
same,Concentration (assay),"nominal pH 7.5, Day 17 (10 days 40° C. then 7 days 50° C.)",2.46 mg/mL
same,Concentration (assay),"nominal pH 7.5, Initial",2.50 mg/mL
same,Concentration (assay),"nominal pH 8.0, Day 7 (7 days 40° C.)",2.49 mg/mL
same,Concentration (assay),"nominal pH 8.0, Day 17 (10 days 40° C. then 7 days 50° C.)",2.42 mg/mL
same,Concentration (assay),"nominal pH 8.0, Initial",2.49 mg/mL
same,Concentration (assay),"nominal pH 9.0, Day 7 (7 days 40° C.)",2.41 mg/mL
same,Concentration (assay),"nominal pH 9.0, Day 17 (10 days 40° C. then 7 days 50° C.)",2.46 mg/mL
same,Concentration (assay),"nominal pH 9.0, Initial",2.47 mg/mL
